# Reference: patent publication US20230416196A1, “DIMER OF BIGUANIDINES AND THEIR THERAPEUTIC USES” (INSTITUT CURIE, priority 2020, published 2023)
# Where a name gives a salt, the structure may show the parent alone.
# What was measured:
# U937 cells = assay: Cell viability assay (CellTiter-Blue) on lymphoma cell line U937; assay type: cell-based; settings: Homo sapiens, U-937, 72 h treatment
# Method: Cell culture. U-937 cells were grown in an incubator equilibrated at 37° C. with 5% CO2, grown to confluence and split with Trypsin/EDTA (Gibco, […]01) once or twice a week according to confluence. U-937 (ATCC, HTB-132) were cultured in RPMI 1640 GLUTAMAX (ThermoFisher Scientific, 61870044) supplemented with 10% Fetal Bovine Serum (FBS, Gibco, 10270-106) and Penicillin-Streptomycin mixture (BioWhittaker/Lonza, DE17-602E). […] Peripheral blood samples were collected from distinct healthy donors (Etablissement Français du Sang). Pan monocytes were isolated by negative magnetic sorting using microbeads according to the manufacturer's instructions (Miltenyi Biotec, 130-096-537), and cultured in RPMI 1640 supplemented with glutamine (Thermo Fisher Scientific, 61870010), 10% fetal bovine serum and exposed to granulocyte-macrophage colony-stimulating factor (GM-CSF, Miltenyi Biotec, 130-093-866, 100 ng/mL) to induce differentiation into macrophages (MDM). […] Cell viability assay (IC50). Cell viability assay was carried out by plating 1000 cells/well in 96-well plates. Cells were treated for 72 h in a range between to 25 nM and […] using serial dilutions. The inventors followed the manufacturer's protocol. In brief, CellTiter-Blue® reagent (G8081, Promega) was added after 72 h treatment and cells were incubated for 3 h before recording fluorescence intensities (λex. 560/20 nm; λem. 590/10 nm) using a Perkin Elmer Wallac 1420 Victor2 Microplate Reader.
# macrophage activation = assay: Macrophage activation, copper(I)-targeting agents; assay type: cell-based
# HMLER CD44^high/CD24^low = assay: Cell viability assay (CellTiter-Blue) on breast cancer stem cell model HMLER CD44high/CD24low; assay type: cell-based, human; settings: for IC50: Homo sapiens, cell viability, 72 h treatment, read-out: IC50 against HMLER CD44^high/CD24^low
# Method: Cell viability assay (IC50). Cell viability assay was carried out by plating 1000 cells/well in 96-well plates. Cells were treated for 72 h in a range between to 25 nM and […] using serial dilutions. The inventors followed the manufacturer's protocol. In brief, CellTiter-Blue® reagent (G8081, Promega) was added after 72 h treatment and cells were incubated for 3 h before recording fluorescence intensities (λex. 560/20 nm; λem. 590/10 nm) using a Perkin Elmer Wallac 1420 Victor2 Microplate Reader.
# Cell culture. MCF7 (ATCC) cells, DU-145 (ATCC) cells and FC1245 cells were cultured in Dulbecco's Modified Eagle Medium GlutaMAX (DMEM, ThermoFisher Scientific, 61965059) supplemented with 10% Fetal Bovine Serum (FBS, Gibco, 10270-106) and Penicillin-Streptomycin mixture (BioWhittaker/Lonza, DE17-602E) unless stated otherwise. Primary lung circulating tumor cells (Celprogen, 36107-34CTC, Lot 219411) were grown using stem cell complete media (Celprogen, M36102-29PS) until the third passage. Circulating cancer cells were grown in stem cell ECM T75-flasks (Celprogen, E36102-29-T75) and ECM 6-well plates (Celprogen, E36102-29-6Well). HMLER cells ([…]) naturally repressing E-cadherin, obtained from human mammary epithelial cells infected with a retrovirus carrying hTERT, SV40 and the oncogenic allele H-rasV12, and HMLER CD44 and TFRC ko clones were cultured in DMEM/F12 (Thermo Fisher Scientific, 31331093) supplemented with 10% FBS (Thermo Fisher Scientific, 10270106), 10 μg/mL insulin (Sigma-Aldrich, 10516), 0.5 μg/mL hydrocortisone (Sigma-Aldrich, H0888) and 0.5 μg/mL puromycin (Life Technologies, A11138-02), unless stated otherwise. HMLER CD44^high cells were also supplemented with 10 ng/mL EGF (Miltenyi Biotech, 130-097-750).
# [1] = test system: activated macrophages (act. MDM), CD86 activation marker; assay: CD86 macrophage activation marker by flow cytometry in LPS/IFNγ-activated monocyte-derived macrophages (Example 4); assay type: cell-based, human; settings: LCCs at 10 μM, 24 h co-treatment; several values per compound
# Method: Cell culture. U-937 cells were grown in an incubator equilibrated at 37° C. with 5% CO2, grown to confluence and split with Trypsin/EDTA (Gibco, […]01) once or twice a week according to confluence. U-937 (ATCC, HTB-132) were cultured in RPMI 1640 GLUTAMAX (ThermoFisher Scientific, 61870044) supplemented with 10% Fetal Bovine Serum (FBS, Gibco, 10270-106) and Penicillin-Streptomycin mixture (BioWhittaker/Lonza, DE17-602E). […] Peripheral blood samples were collected from distinct healthy donors (Etablissement Français du Sang). Pan monocytes were isolated by negative magnetic sorting using microbeads according to the manufacturer's instructions (Miltenyi Biotec, 130-096-537), and cultured in RPMI 1640 supplemented with glutamine (Thermo Fisher Scientific, 61870010), 10% fetal bovine serum and exposed to granulocyte-macrophage colony-stimulating factor (GM-CSF, Miltenyi Biotec, 130-093-866, 100 ng/mL) to induce differentiation into macrophages (MDM). […] Flow cytometry. Cells were washed with ice-cold 1×PBS, incubated with Fc block (Human TruStain FcX, Biolegend, 422302, 1/20) for 15 min, incubated with antibodies for 20 min at 4° C. and washed before analysis using a BD LSRFortessa X-20. Macrophages were analyzed with an antibody panel consisting of antibodies against the following cell surface proteins: CD44, CD80, CD86 and TfR1. The data were analyzed with FlowJo software v. 10.0.00003. […]
Compound,IC50 (U937 cells) [µM],also measured
CN(CCCCCCCCCCCCN(C)C(=N)NC(=N)N)C(=N)NC(=N)N [LCC-12Me],6,–
"N=C1NCCCCCCCCCCNC(=N)NC(=N)NCCCCCCCCCCNC(=N)N1 [Coronaformin-10,10]",1,–
[NH4+].[NH4+].[SH-].[SH-].[S]=[Mo]=[S] [ATTM],–,efficacy on macrophage activation (macrophage activation): lack of efficacy
CC(C)(S)[C@@H](N)C(=O)O [D-Pen],–,efficacy on macrophage activation (macrophage activation): lack of efficacy
"N=C1NCCCCCCCCCCCCNC(=N)NC(=N)NCCCCCCCCCCCCNC(=N)N1 [Coronaformin-12,12]",0.5,–
CN(CCCCCCCCN(C)C(=N)NC(=N)N)C(=N)NC(=N)N [LCC-8Me],150,Effect on CD86 macrophage activation marker (Flow cytometry) (% of activation marker compared to its level in activated macrophages) [1]: 89%
"N=C1NCCCCCCCCNC(=N)NC(=N)NCCCCCCCCNC(=N)N1 [Coronaformin-8,8]",3,–
"CN(C)C(=N)NC(=N)N [Metformin, 1,1-dimethylbiguanid hydrochloride, reference compound]",10000,IC50 (HMLER CD44^high/CD24^low): 22600 µM

# Continued, in another order:
IC50 (U937 cells) [µM],Compound,also measured
20,N=C(N)NC(=N)NCCCCCCCCCCNC(=N)NC(=N)N [LCC-10],improved IC50 compared with metformin (HMLER CD44^high/CD24^low; HMLER CD44high/CD24low): about 400 fold; IC50 (HMLER CD44^high/CD24^low): 58 µM
1,"CCNC(=N)NC(=N)NCCCCCCCCCCNC(=N)NC(=N)NCC [LCC-10,2]",–
0.6,"CCCNC(=N)NC(=N)NCCCCCCCCCCNC(=N)NC(=N)NCCC [LCC-10,3]",Effect on CD86 macrophage activation marker (Flow cytometry) (% of activation marker compared to its level in activated macrophages) [1]: 22%
2,"CCCNC(=N)NC(=N)NCCCCCCCCNC(=N)NC(=N)NCCC [LCC-8,3]",–
